Measured values: patent publication US11020399B2, “Intermediates useful in the synthesis of compounds as modulators of protein kinases” (Rhizen Pharmaceuticals SA, priority 2011, dated 2021)

Experiments:
[1] = target: PI3kβ (Homo sapiens, UniProt P42338); assay: Fluorescent (HTRF) determination of PI3 kinase enzyme activity, PI3Kβ; format: biochemical
Summary of the method: (§1)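 HTRF detection of PIP3 from PIP2 (1.38 μM in reaction mix) with 10 mM MgCl2, 5 mM DTT; compound preincubated with enzyme 10 min, then ATP (400 μM addition) 30 min at room temperature. Percent inhibition versus blank and enzyme controls at 1 μM (α, β) and 0.3 or 0.1 μM (γ, δ); IC50 also fitted.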

[2] = target: PI3kδ (Homo sapiens, UniProt O00329); assay: Fluorescent (HTRF) determination of PI3 kinase enzyme activity, PI3Kδ; format: biochemical; settings: for inhibition at 0.1 µM / % inhibition (PI3kδ) 100 nM: 100 nM (Examples 60-137); for inhibition at 0.3 µM: 300 nM (Examples 1-59); for % inhibition (PI3kδ) 100 nM: 0.1 µM
Summary of the method: as §1

[3] = target: PI3kα (Homo sapiens, UniProt P42336); assay: Fluorescent (HTRF) determination of PI3 kinase enzyme activity, PI3Kα; format: biochemical
Summary of the method: as §1

[4] = target: PI3kγ (Homo sapiens, UniProt P48736); assay: Fluorescent (HTRF) determination of PI3 kinase enzyme activity, PI3Kγ; format: biochemical; settings: for inhibition at 0.1 µM / % inhibition (PI3kγ) 100 nM: 100 nM (Examples 60-137); for inhibition at 0.3 µM: 300 nM (Examples 1-59); for % inhibition (PI3kγ) 100 nM: 0.1 µM
Summary of the method: as §1

Sequence of PI3kβ (P42338 whole entry): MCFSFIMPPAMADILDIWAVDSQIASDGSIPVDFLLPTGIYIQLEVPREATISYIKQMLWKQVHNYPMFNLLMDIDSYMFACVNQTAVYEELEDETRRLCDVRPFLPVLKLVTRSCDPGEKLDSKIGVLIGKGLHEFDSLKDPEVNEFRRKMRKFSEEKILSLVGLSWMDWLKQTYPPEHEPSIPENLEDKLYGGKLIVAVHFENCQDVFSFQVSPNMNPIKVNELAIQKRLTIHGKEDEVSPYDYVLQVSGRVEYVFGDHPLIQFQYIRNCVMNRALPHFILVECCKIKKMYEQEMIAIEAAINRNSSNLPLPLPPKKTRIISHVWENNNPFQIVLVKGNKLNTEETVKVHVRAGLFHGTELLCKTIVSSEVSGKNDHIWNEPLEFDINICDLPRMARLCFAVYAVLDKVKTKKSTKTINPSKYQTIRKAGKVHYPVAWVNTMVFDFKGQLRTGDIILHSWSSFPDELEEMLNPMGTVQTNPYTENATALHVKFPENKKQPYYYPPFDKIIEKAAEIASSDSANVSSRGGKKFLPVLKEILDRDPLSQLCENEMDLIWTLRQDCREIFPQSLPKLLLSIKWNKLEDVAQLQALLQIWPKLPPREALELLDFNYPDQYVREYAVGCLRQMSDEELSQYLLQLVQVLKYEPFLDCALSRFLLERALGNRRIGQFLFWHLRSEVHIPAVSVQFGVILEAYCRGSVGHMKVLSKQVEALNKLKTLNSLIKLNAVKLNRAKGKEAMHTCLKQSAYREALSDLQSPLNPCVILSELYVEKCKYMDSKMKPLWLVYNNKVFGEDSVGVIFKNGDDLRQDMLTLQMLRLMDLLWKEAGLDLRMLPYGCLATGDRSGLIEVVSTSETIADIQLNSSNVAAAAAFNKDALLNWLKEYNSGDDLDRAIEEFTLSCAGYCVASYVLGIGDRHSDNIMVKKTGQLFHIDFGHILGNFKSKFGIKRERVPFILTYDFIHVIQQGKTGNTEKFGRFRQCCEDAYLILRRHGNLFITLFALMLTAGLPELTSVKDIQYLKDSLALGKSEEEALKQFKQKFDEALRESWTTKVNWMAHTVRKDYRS
Sequence of PI3kβ (P27986 whole entry partner): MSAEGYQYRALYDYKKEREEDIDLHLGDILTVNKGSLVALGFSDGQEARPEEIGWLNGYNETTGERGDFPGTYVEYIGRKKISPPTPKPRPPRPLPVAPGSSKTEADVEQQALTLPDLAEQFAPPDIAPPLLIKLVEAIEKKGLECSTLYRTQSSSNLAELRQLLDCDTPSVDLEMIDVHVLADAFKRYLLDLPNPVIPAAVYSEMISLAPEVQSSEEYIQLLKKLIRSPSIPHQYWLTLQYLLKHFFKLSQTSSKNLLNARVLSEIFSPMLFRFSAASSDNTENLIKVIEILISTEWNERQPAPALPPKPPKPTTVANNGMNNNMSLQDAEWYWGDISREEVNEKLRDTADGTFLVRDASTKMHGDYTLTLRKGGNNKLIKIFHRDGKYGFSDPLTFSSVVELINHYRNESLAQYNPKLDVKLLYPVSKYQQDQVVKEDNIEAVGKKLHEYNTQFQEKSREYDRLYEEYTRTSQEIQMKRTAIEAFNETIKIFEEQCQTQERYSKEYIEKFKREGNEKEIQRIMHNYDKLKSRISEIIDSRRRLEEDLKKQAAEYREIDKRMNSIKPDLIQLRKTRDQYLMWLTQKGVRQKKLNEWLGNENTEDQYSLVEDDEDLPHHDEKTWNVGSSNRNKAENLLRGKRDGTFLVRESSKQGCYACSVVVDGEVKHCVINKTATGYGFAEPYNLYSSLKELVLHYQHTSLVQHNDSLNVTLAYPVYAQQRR
Sequence of PI3kδ (O00329 whole entry): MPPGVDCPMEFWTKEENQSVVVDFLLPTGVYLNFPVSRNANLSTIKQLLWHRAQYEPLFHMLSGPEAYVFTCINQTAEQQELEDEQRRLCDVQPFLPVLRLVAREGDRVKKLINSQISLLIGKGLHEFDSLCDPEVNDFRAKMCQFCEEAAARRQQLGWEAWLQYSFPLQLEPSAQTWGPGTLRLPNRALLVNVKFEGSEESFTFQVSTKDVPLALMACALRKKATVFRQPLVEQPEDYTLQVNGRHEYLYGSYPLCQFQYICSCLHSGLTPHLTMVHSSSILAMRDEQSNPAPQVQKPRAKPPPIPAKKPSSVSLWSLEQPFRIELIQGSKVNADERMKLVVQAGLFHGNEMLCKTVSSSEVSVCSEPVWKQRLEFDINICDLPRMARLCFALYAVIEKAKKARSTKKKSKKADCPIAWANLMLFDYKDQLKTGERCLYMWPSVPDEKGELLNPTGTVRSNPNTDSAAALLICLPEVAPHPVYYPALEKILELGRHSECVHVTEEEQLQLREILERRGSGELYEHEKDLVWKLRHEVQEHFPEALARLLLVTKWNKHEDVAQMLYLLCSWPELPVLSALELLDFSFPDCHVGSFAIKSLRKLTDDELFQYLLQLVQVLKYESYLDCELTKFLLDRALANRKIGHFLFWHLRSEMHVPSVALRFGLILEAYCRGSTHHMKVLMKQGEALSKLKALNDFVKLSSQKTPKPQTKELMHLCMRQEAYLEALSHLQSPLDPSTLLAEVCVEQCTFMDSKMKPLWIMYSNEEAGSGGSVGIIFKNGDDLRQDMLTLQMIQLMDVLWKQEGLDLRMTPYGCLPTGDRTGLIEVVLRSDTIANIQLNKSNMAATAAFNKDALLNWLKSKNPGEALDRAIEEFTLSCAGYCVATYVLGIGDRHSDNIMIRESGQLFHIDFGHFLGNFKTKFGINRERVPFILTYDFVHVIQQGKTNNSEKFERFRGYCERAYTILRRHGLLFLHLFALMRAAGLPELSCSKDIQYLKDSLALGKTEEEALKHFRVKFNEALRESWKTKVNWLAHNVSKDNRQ
Sequence of PI3kδ (P27986 whole entry partner): as the sequence (P27986 whole entry partner) above
Sequence of PI3kα (P42336 whole entry): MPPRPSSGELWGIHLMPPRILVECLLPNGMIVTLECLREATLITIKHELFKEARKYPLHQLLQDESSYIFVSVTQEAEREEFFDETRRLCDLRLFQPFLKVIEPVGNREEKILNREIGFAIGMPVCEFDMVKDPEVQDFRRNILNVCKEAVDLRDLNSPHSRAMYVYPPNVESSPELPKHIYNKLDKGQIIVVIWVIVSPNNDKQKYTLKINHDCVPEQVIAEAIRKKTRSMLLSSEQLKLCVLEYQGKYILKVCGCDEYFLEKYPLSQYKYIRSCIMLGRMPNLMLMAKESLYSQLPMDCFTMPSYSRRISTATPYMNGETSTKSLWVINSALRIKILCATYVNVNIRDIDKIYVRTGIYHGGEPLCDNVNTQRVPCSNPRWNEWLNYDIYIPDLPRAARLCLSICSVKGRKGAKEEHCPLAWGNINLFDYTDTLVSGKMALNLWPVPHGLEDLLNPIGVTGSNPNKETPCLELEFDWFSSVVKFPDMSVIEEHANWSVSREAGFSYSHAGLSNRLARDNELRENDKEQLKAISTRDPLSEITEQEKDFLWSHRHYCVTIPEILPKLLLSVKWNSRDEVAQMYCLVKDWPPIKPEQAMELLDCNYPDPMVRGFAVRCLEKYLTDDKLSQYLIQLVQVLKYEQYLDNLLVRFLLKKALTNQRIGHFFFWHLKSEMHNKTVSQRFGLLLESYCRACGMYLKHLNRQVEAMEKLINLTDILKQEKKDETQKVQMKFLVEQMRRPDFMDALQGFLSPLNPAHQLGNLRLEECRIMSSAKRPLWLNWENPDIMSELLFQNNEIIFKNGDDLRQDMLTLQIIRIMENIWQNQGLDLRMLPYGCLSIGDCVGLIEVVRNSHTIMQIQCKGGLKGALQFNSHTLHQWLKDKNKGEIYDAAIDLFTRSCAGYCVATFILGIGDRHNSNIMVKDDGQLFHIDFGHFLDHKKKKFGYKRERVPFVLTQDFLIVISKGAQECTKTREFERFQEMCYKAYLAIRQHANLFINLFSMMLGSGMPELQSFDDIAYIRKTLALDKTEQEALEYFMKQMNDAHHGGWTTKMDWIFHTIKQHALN
Sequence of PI3kα (P27986 whole entry partner): as the sequence (P27986 whole entry partner) above
Sequence of PI3kγ (P48736 whole entry): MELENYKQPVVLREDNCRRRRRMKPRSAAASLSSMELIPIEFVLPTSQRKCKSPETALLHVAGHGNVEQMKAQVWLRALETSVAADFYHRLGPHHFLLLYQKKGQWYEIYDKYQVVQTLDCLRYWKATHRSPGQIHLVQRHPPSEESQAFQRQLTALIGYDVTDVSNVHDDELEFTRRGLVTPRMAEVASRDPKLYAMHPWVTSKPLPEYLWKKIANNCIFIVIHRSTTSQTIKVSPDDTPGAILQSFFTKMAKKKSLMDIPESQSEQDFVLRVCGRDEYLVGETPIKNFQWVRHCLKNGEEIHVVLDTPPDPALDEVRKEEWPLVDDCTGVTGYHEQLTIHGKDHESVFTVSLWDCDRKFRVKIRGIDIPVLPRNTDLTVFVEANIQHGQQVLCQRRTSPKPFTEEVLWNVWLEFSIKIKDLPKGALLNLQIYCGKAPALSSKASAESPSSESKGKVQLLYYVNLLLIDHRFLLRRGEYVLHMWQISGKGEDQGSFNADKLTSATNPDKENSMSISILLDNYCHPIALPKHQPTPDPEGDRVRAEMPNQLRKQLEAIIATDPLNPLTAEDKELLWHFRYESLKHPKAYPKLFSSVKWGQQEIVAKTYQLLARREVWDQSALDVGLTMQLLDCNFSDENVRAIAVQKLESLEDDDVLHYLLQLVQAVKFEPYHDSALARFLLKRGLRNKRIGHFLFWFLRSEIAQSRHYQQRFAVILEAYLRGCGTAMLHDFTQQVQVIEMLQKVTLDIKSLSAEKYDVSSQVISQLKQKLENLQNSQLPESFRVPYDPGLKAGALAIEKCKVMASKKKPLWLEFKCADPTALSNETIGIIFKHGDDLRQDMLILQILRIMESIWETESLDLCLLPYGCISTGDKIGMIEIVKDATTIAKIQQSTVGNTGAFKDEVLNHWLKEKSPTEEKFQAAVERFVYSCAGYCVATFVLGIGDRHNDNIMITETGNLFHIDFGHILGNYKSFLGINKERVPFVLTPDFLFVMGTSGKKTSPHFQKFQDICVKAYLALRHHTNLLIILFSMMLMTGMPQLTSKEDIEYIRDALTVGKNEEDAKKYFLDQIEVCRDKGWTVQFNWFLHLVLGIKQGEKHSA

SMILES	inhibition at 1 µM [1]	inhibition at 0.1 µM [2]	inhibition at 1 µM ([3]; 1 uM)	melting point	inhibition at 0.1 µM [4]	other results
CC(c1oc2cccc(F)c2c(=O)c1-c1cccc(F)c1)n1nc(-c2ccc(S(N)(=O)=O)cc2)c2c(N)ncnc21 (stereo not shown) [Example 60, 4-(4-amino-1-(1-(5-fluoro-3-(3-fluorophenyl)-4-oxo-4H-chromen-2-yl)ethyl)-1H-pyrazolo[3,4-d]pyrimidin-3-yl)benzenesulfonamide]	25 to 50%	25 to 50%	0 to 25%	232 to 235 °C	25 to 50%	–
CNS(=O)(=O)c1ccc(-c2nn(C(C)c3oc4cccc(F)c4c(=O)c3-c3cccc(F)c3)c3ncnc(N)c23)cc1 (stereo not shown) [Example 52, 4-(4-amino-1-(1-(5-fluoro-3-(3-fluorophenyl)-4-oxo-4H-chromen-2-yl)ethyl)-1H-pyrazolo[3,4-d]pyrimidin-3-yl)-N-methylbenzenesulfonamide]	50 to 75%	–	25 to 50%	175 to 178 °C	–	inhibition at 0.3 µM [2]: 50 to 75%; inhibition at 0.3 µM [4]: 50 to 75%
CC(c1oc2cccc(F)c2c(=O)c1-c1cccc(F)c1)n1nc(-c2ccc(N3CCOCC3)c(F)c2)c2c(N)ncnc21 (single isomer, unassigned) [Example 59]	25 to 50%	–	–	242 to 245 °C	–	IC50 [1]: > 500 nM; IC50 [2]: 100 to 300 nM; IC50 ([3]; numeric values): > 10000 nM; IC50 [4]: ≤ 50 nM
COC(=O)c1cc(-c2nn(C(C)c3oc4cccc(F)c4c(=O)c3-c3cccc(F)c3)c3ncnc(N)c23)cs1 (stereo not shown) [Example 61, methyl 4-(4-amino-1-(1-(5-fluoro-3-(3-fluorophenyl)-4-oxo-4H-chromen-2-yl)ethyl)-1H-pyrazolo[3,4-d]pyrimidin-3-yl)thiophene-2-carboxylate]	25 to 50%	25 to 50%	25 to 50%	227 to 230 °C	50 to 75%	–
CNc1nnc(-c2ccc(-c3nn(C(C)c4oc5cccc(F)c5c(=O)c4-c4cccc(F)c4)c4ncnc(N)c34)cc2)s1 (stereo not shown) [Example 54, 2-(1-(4-amino-3-(4-(5-(methylamino)-1,3,4-thiadiazol-2-yl)phenyl)-1H-pyrazolo[3,4-d]pyrimidin-1-yl)ethyl)-5-fluoro-3-(3-fluorophenyl)-4H-chromen-4-one]	25 to 50%	–	25 to 50%	199 to 201 °C	–	inhibition at 0.3 µM [2]: 50 to 75%; inhibition at 0.3 µM [4]: 50 to 75%
CC(c1oc2cccc(F)c2c(=O)c1-c1cccc(F)c1)n1nc(-c2ccc(OC3COC3)c(F)c2)c2c(N)ncnc21 (stereo not shown) [Example 46, 2-(1-(4-amino-3-(3-fluoro-4-(oxetan-3-yloxy)phenyl)-1H-pyrazolo[3,4-d]pyrimidin-1-yl)ethyl)-5-fluoro-3-(3-fluorophenyl)-4H-chromen-4-one]	50 to 75%	–	0 to 25%	235 to 237 °C	–	inhibition at 0.3 µM [2]: 25 to 50%; inhibition at 0.3 µM [4]: 50 to 75%

Second part, led by results:

inhibition at 1 µM [1]	inhibition at 0.1 µM [2]	inhibition at 1 µM ([3]; 1 uM)	melting point	inhibition at 0.1 µM [4]	SMILES	other results
25 to 50%	50 to 75%	0 to 25%	163 to 166 °C	25 to 50%	CC(c1oc2cccc(F)c2c(=O)c1-c1cccc(F)c1)n1nc(-c2ccc(CNC(=O)OC(C)(C)C)o2)c2c(N)ncnc21 (stereo not shown) [Example 74, tert-butyl (5-(4-amino-1-(1-(5-fluoro-3-(3-fluorophenyl)-4-oxo-4H-chromen-2-yl)ethyl)-1H-pyrazolo[3,4-d]pyrimidin-3-yl)furan-2-yl)methylcarbamate]	–
0 to 25%	25 to 50%	25 to 50%	203 to 205 °C	25 to 50%	CC(Nc1ncnc2[nH]cnc12)c1oc2cccc(F)c2c(=O)c1-c1ccccc1F (stereo not shown) [Example 131, 2-(1-(9H-purin-6-ylamino)ethyl)-5-fluoro-3-(2-fluorophenyl)-4H-chromen-4-one]	–
–	–	25 to 50%	194 to 197 °C	–	CC(Nc1ncnc2[nH]cnc12)c1oc2cccc(F)c2c(=O)c1-c1cccc(F)c1 (single isomer, unassigned; (+)) [Example 68, (+)-2-(1-(9H-purin-6-ylamino)ethyl)-5-fluoro-3-(3-fluorophenyl)-4H-chromen-4-one]	% inhibition (PI3kβ) 1 uM [1]: B (B=>50 to 75%); % inhibition (PI3kδ) 100 nM [2]: C (C=>25 to 50%); % inhibition (PI3kγ) 100 nM [4]: B (B=>50 to 75%)
25 to 50%	25 to 50%	25 to 50%	220 to 223 °C	25 to 50%	CC(=O)Nc1ccc(-c2nn(C(C)c3oc4cccc(F)c4c(=O)c3-c3cccc(F)c3)c3ncnc(N)c23)cc1F (stereo not shown) [Example 82, N-(4-(4-amino-1-(1-(5-fluoro-3-(3-fluorophenyl)-4-oxo-4H-chromen-2-yl)ethyl)-1H-pyrazolo[3,4-d]pyrimidin-3-yl)-2-fluorophenyl)acetamide]	–
50 to 75%	25 to 50%	0 to 25%	208 to 210 °C	0 to 25%	Cc1cccc2oc([C@H](C)n3nc(-c4ccc(OC(C)C)c(F)c4)c4c(N)ncnc43)c(-c3ccccc3)c(=O)c12 (single isomer, unassigned) [Example 137]	–
–	–	–	187 to 189 °C	–	CC(c1oc2cccc(F)c2c(=O)c1-c1cccc(F)c1)n1cnc2c(N(C)C)ncnc21 (racemic) [Example 129, (S)/(R)-2-(1-(6-(dimethylamino)-9H-purin-9-yl)ethyl)-5-fluoro-3-(3-fluorophenyl)-4H-chromen-4-one]	% inhibition (PI3kβ) 1 uM [1]: C (C=>25 to 50%); % inhibition (PI3kδ) 100 nM [2]: D (D=0 to 25%); % inhibition (PI3kα) 1 uM ([3]; 1 uM): D (D=0 to 25%); % inhibition (PI3kγ) 100 nM [4]: C (C=>25 to 50%)
25 to 50%	50 to 75%	50 to 75%	232 to 235 °C	25 to 50%	Cc1c2ccc(-c3nn(C(C)c4oc5cccc(F)c5c(=O)c4-c4cccc(F)c4)c4ncnc(N)c34)cc2nn1C (stereo not shown) [Example 80, 2-(1-(4-amino-3-(2,3-dimethyl-2H-indazol-6-yl)-1H-pyrazolo[3,4-d]pyrimidin-1-yl)ethyl)-5-fluoro-3-(3-fluorophenyl)-4H-chromen-4-one]	–
25 to 50%	50 to 75%	0 to 25%	293 to 296 °C	0 to 25%	CC(c1oc2cccc(F)c2c(=O)c1-c1cccc(F)c1)n1nc(-c2ccc3c(c2)CNC3=O)c2c(N)ncnc21 (stereo not shown) [Example 123, 5-(4-amino-1-(1-(5-fluoro-3-(3-fluorophenyl)-4-oxo-4H-chromen-2-yl)ethyl)-1H-pyrazolo[3,4-d]pyrimidin-3-yl)isoindolin-1-one]	–
25 to 50%	25 to 50%	25 to 50%	220 to 222 °C	25 to 50%	CC(c1oc2cccc(F)c2c(=O)c1-c1cccc(F)c1)n1nc(C#CCO)c2c(N)ncnc21 (stereo not shown) [Example 66, 2-(1-(4-amino-3-(3-hydroxyprop-1-ynyl)-1H-pyrazolo[3,4-d]pyrimidin-1-yl)ethyl)-5-fluoro-3-(3-fluorophenyl)-4H-chromen-4-one]	–
